Test results from ChEMBL document CHEMBL3507680, “University of Dundee, Gates Library screen for HepG2 cell viability”.

Assay: Human HepG2 cell viability assay in 384 well format
Type: toxicity, cell-based
Set-up: dose 125 nL, time 70.5 hour; cytotoxicity at 70.5 h: concentration not given beside the values
Settings: HepG2 cells, read-out: Inhibition

For `O=C(Cc1csc(N2CCNC2=O)n1)NCC1(c2ccccc2)CC1`, which cytotoxicity at 70.5 h is on record?
Its cytotoxicity at 70.5 h is 24.5%.

Which cytotoxicity at 70.5 h does the source give for `O=C(Cc1csc(N2CCNC2=O)n1)NC(c1ccccc1)C1CC1` (configuration not stated) here?
Its cytotoxicity at 70.5 h is -3.72%.

With `O=C(Cc1csc(N2CCNC2=O)n1)NC1(c2ccccc2)CCC1` as the compound, how does the cytotoxicity at 70.5 h read?
The cytotoxicity at 70.5 h was -8.91%.

With `CN(CCCc1cc(-c2cccc(F)c2)n[nH]1)C(=O)Cn1cncn1` as the compound, how does the cytotoxicity at 70.5 h read?
Its cytotoxicity at 70.5 h is 22.1%.

With `C[C@@H]1CN(Cc2ccccc2)CCN1C(=O)NCc1nccs1` as the compound, how does the cytotoxicity at 70.5 h read?
The cytotoxicity at 70.5 h was 0.13%.

Which cytotoxicity at 70.5 h does the source give for `Cc1nccc(CNC(=O)N2CCN(Cc3ccccc3)C[C@H]2C)n1` here?
The cytotoxicity at 70.5 h was -8.68%.

For `CC/C=C(/C)C(=O)N1CCN(C2=NCC(C)S2)CC1` (configuration not stated), which cytotoxicity at 70.5 h is on record?
Its cytotoxicity at 70.5 h is 32.7%.

For `CN1CCC(NC(=O)Nc2ccc(F)c(Br)c2)C1=O` (configuration not stated), which cytotoxicity at 70.5 h is on record?
Its cytotoxicity at 70.5 h is 21%.

With `CCn1nc2c(cc1=O)CN(Cc1ccc(-n3cccn3)cc1)CC2` as the compound, how does the cytotoxicity at 70.5 h read?
Its cytotoxicity at 70.5 h is 2.14%.

For `CC(C)n1nc2c(cc1=O)CN(Cc1ccc(-n3cccn3)cc1)CC2`, which cytotoxicity at 70.5 h is on record?
The cytotoxicity at 70.5 h was 24.1%.

With `Cc1ccc(-n2ccnc2)c(C(=O)NCCCN(C)C)c1` as the compound, how does the cytotoxicity at 70.5 h read?
Its cytotoxicity at 70.5 h is 2%.

Which cytotoxicity at 70.5 h does the source give for `CC(CCS(C)(=O)=O)NC(=O)NCc1ccc2c(c1)CCC2` (configuration not stated) here?
The cytotoxicity at 70.5 h was -6.48%.

For `Cc1cccc(C)c1OCCNC(=O)C[S+]([O-])C1CCCC1` (configuration not stated), which cytotoxicity at 70.5 h is on record?
Its cytotoxicity at 70.5 h is -5.72%.

For `O=C(c1cnns1)N1CCN(c2ccc(F)cc2Cl)CC1`, which cytotoxicity at 70.5 h is on record?
The cytotoxicity at 70.5 h was 4.28%.

Which cytotoxicity at 70.5 h does the source give for `O=C(C[S+]([O-])C1CCCC1)NCCOc1cccc(Cl)c1` (configuration not stated) here?
Its cytotoxicity at 70.5 h is -6.11%.

For `Cc1cc(CN2CCN(S(=O)(=O)c3c(C)c(Cl)cc(C)c3Cl)CC2)on1`, which cytotoxicity at 70.5 h is on record?
Its cytotoxicity at 70.5 h is -9.59%.

For `Cc1cc(C(=O)NCCN2CCCC(C)C2)nn1C(C)(C)C` (configuration not stated), which cytotoxicity at 70.5 h is on record?
Its cytotoxicity at 70.5 h is -22.7%.

For `CC(C)C(NC(=O)NCc1cccnc1N(C)C)c1cccs1` (configuration not stated), which cytotoxicity at 70.5 h is on record?
The cytotoxicity at 70.5 h was -20.8%.

With `CCNc1cc2c(nn1)CCN(C(=O)c1ccc(-n3cccn3)nc1)C2` as the compound, how does the cytotoxicity at 70.5 h read?
Its cytotoxicity at 70.5 h is -15.9%.

Which cytotoxicity at 70.5 h does the source give for `O=C(Cn1cc(-c2ccccc2)cn1)N1CCNC1=O` here?
Its cytotoxicity at 70.5 h is -21.6%.

Which cytotoxicity at 70.5 h does the source give for `O=C(CCOc1ccccc1F)N1CCC(O)CC1` here?
The cytotoxicity at 70.5 h was -9.54%.

Which cytotoxicity at 70.5 h does the source give for `CC(CNC(=O)c1c[nH]nn1)Oc1ccc(Cl)cc1` (configuration not stated) here?
The cytotoxicity at 70.5 h was -22.2%.

With `NC(=O)c1cc(C2CCCN(Cc3ccc4c(c3)OCCO4)C2)n[nH]1` (configuration not stated) as the compound, how does the cytotoxicity at 70.5 h read?
Its cytotoxicity at 70.5 h is -22.9%.

With `Cc1nnc(-c2cccc(C#N)c2)n1C1CCN(C2CC2)C1=O` (configuration not stated) as the compound, how does the cytotoxicity at 70.5 h read?
The cytotoxicity at 70.5 h was 46%.

Which cytotoxicity at 70.5 h does the source give for `Cn1ncnc1NCc1ccc(Cl)cc1` here?
The cytotoxicity at 70.5 h was -9.65%.

With `Cn1ncnc1NCc1ccccc1Cl` as the compound, how does the cytotoxicity at 70.5 h read?
The cytotoxicity at 70.5 h was -15.3%.

Which cytotoxicity at 70.5 h does the source give for `CCCC(=O)NC1CCCN(Cc2cccs2)C1` (configuration not stated) here?
Its cytotoxicity at 70.5 h is -18.1%.

For `CCN(CC1CCCO1)C(=O)NCCNC(=O)c1ccccc1F` (configuration not stated), which cytotoxicity at 70.5 h is on record?
The cytotoxicity at 70.5 h was 43.4%.

With `CCCN(CCc1ccccn1)C(=O)CCc1cnn(C)c1` as the compound, how does the cytotoxicity at 70.5 h read?
The cytotoxicity at 70.5 h was -10.1%.

With `O=C(C1CCCN(CCc2ccc3c(c2)CCO3)C1)N1CCCC1` (configuration not stated) as the compound, how does the cytotoxicity at 70.5 h read?
Its cytotoxicity at 70.5 h is 44.9%.

For `CC(C)CC(c1nc(-c2cnn(C)c2)no1)N1CCCCC1=O` (configuration not stated), which cytotoxicity at 70.5 h is on record?
The cytotoxicity at 70.5 h was -3.04%.

With `CCC(=O)NC1CCCN(Cc2ccc(NC(C)=O)cc2)C1` (configuration not stated) as the compound, how does the cytotoxicity at 70.5 h read?
The cytotoxicity at 70.5 h was -4.65%.

For `COc1cccc(CC2CCCN2CCCO)c1` (configuration not stated), which cytotoxicity at 70.5 h is on record?
Its cytotoxicity at 70.5 h is -2.11%.

Which cytotoxicity at 70.5 h does the source give for `CN(CC1CCN(CCO)CC1)CC(O)c1ccc(F)c(F)c1` (configuration not stated) here?
The cytotoxicity at 70.5 h was 7.09%.

With `CCCNC(=O)c1cccc2ncccc12` as the compound, how does the cytotoxicity at 70.5 h read?
The cytotoxicity at 70.5 h was -4.07%.

With `Cc1ccc(C(C)N(C)CCS(=O)(=O)CCC(N)=O)cc1` (configuration not stated) as the compound, how does the cytotoxicity at 70.5 h read?
Its cytotoxicity at 70.5 h is -6.4%.

Which cytotoxicity at 70.5 h does the source give for `COc1ccc(C(C)N2CCC(C(=O)N(C)C)CC2)cc1Cl` (configuration not stated) here?
Its cytotoxicity at 70.5 h is -7.99%.

With `O=C(CNc1cccc(S(=O)(=O)C(F)F)c1)Nc1ccccc1` as the compound, how does the cytotoxicity at 70.5 h read?
The cytotoxicity at 70.5 h was -5.1%.

For `COc1ccc(C(C)N2CCC(CNC(C)=O)CC2)cc1Cl` (configuration not stated), which cytotoxicity at 70.5 h is on record?
The cytotoxicity at 70.5 h was -1.84%.

For `CC(C)c1ccc(-n2cc(O)c(C(=O)O)n2)cc1`, which cytotoxicity at 70.5 h is on record?
Its cytotoxicity at 70.5 h is -5.79%.

Which cytotoxicity at 70.5 h does the source give for `O=C(NCc1ccco1)Nc1cccc(S(=O)(=O)C(F)F)c1` here?
Its cytotoxicity at 70.5 h is -8.46%.

Which cytotoxicity at 70.5 h does the source give for `COc1ccccc1C(C)CC(=O)N1CCN(S(N)(=O)=O)CC1` (configuration not stated) here?
The cytotoxicity at 70.5 h was -3.69%.

For `CC(C)(C)[S+]([O-])CCNC(=O)c1ccc(Cl)c2cccnc12` (configuration not stated), which cytotoxicity at 70.5 h is on record?
The cytotoxicity at 70.5 h was -6.1%.

For `O=C(CNc1ccccc1S(=O)(=O)C(F)F)NCc1ccco1`, which cytotoxicity at 70.5 h is on record?
Its cytotoxicity at 70.5 h is -5.76%.

With `CC(=O)N1CCN(C2CCCCc3ccccc32)CC1` (configuration not stated) as the compound, how does the cytotoxicity at 70.5 h read?
Its cytotoxicity at 70.5 h is -1.72%.

Which cytotoxicity at 70.5 h does the source give for `NC(=O)N1CCCN(C2CCCCc3ccccc32)CC1` (configuration not stated) here?
Its cytotoxicity at 70.5 h is -1.64%.

Which cytotoxicity at 70.5 h does the source give for `O=C(c1ccc2c(c1)[nH]c(=O)n2C1CCCC1)N1CCC1` here?
Its cytotoxicity at 70.5 h is -3.8%.

For `O=C(NCC1(O)CCOC1)NCC1(c2ccccc2Cl)CC1` (configuration not stated), which cytotoxicity at 70.5 h is on record?
The cytotoxicity at 70.5 h was -2.47%.

For `O=C(NCC1(O)CCOC1)NCC1(c2ccccc2Cl)CCC1` (configuration not stated), which cytotoxicity at 70.5 h is on record?
The cytotoxicity at 70.5 h was 0.471%.

Which cytotoxicity at 70.5 h does the source give for `Cn1cc(CCCN2CCN(C(=O)c3cccc(O)c3)CC2)cn1` here?
Its cytotoxicity at 70.5 h is -3.56%.

With `CC(=O)N1CCCN(C2CCCCc3ccccc32)CC1` (configuration not stated) as the compound, how does the cytotoxicity at 70.5 h read?
Its cytotoxicity at 70.5 h is -3.31%.

For `O=C(c1ccsc1)N1CCN(CC(O)c2cccc(F)c2)CC1` (configuration not stated), which cytotoxicity at 70.5 h is on record?
Its cytotoxicity at 70.5 h is 9.92%.

With `Cc1ccccc1C(C)CC(=O)N1CC[C@H](O)C1` (some centres not stated) as the compound, how does the cytotoxicity at 70.5 h read?
The cytotoxicity at 70.5 h was -2.39%.

Which cytotoxicity at 70.5 h does the source give for `O=C(NCC1(O)CCOC1)c1ccccc1Cl` (configuration not stated) here?
Its cytotoxicity at 70.5 h is -3.89%.

For `COc1ccc(CC2CCCN2CCCC#N)cc1` (configuration not stated), which cytotoxicity at 70.5 h is on record?
The cytotoxicity at 70.5 h was -4.33%.

With `CC(=O)N1CCN(C2CCc3ccccc32)CC1` (configuration not stated) as the compound, how does the cytotoxicity at 70.5 h read?
The cytotoxicity at 70.5 h was -2.55%.

Which cytotoxicity at 70.5 h does the source give for `COCCN1CCC(CNC(=O)C2(C#N)CCCCC2)CC1` here?
Its cytotoxicity at 70.5 h is -8.47%.
